Results taken from patent publication US20230140798A1, “SYNTHETIC PEPTIDES DIRECTED AGAINST THE METABOTROPIC GLUTAMATE RECEPTOR 5” (Lactocore, Inc., priority 2020, published 2023).
“Also recorded” adds a separate entry of the source. Values belong to the compound of their own block, whether it stands above or below them.

Experiments:
human mGluR5 = target: T1, human mGluR5 (Homo sapiens, UniProt P41594); assay: Sodium glutamate-evoked [Ca^2+] responses in CHO-mGluR5 cells (calcium-flux imaging); type: cell-based
T1 construct: expressed in transfected cells; host or cells: CHO cells carrying pcDNA6/TR (T-REx system)
T1 sequence (P41594 21-1212): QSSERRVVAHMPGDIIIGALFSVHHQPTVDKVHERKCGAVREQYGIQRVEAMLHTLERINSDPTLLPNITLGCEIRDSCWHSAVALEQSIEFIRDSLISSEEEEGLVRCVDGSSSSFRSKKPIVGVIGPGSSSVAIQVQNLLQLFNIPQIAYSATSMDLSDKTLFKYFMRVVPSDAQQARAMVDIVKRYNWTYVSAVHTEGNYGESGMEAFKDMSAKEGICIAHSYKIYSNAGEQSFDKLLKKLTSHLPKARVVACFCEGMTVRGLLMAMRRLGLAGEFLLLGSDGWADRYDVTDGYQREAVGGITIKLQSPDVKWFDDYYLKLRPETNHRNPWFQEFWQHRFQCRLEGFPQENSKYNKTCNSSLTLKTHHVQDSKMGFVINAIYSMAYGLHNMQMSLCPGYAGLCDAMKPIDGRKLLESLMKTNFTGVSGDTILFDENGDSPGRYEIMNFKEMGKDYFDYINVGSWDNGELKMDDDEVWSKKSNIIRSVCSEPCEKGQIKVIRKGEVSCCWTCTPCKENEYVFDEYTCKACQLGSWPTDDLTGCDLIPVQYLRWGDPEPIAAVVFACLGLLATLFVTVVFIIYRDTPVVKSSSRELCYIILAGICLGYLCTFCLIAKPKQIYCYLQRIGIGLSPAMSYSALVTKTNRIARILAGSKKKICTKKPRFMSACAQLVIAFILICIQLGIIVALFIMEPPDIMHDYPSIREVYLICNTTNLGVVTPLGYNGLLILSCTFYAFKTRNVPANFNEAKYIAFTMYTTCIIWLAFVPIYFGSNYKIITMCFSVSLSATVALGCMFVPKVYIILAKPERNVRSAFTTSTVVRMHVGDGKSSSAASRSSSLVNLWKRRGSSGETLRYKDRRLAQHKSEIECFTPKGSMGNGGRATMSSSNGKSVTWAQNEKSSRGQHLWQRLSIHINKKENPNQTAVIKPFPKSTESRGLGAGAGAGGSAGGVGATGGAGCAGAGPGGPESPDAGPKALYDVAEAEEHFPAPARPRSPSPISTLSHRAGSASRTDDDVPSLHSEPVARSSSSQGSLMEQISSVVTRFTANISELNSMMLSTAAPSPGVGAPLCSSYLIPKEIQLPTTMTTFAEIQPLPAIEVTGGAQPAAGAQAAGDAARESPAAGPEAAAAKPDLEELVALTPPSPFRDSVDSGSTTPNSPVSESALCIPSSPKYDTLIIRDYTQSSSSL
From the text: CHO-mGluR5 cells with tetracycline-induced stable expression of human mGluR5.
The CHO cell line stably expressing human mGluR5 was generated using T-Rex System (Thermo Fisher Scientific Inc., Waltham, Mass., USA) according to the manufacturer's' instructions. Briefly, cDNA encoding human mGluR5 was subcloned into inducible expression vector pcDNA4/TO and was transfected into CHO cells carrying regulatory vector pcDNA6/TR that expresses the tetracycline repressor. After 2 weeks of selection using Blasticidin (5 µg/ml) and zeocin (250 µg/ml), pools of cells were screened for the expression of mGluR5 in the agonist-induced [Ca^2+] uptake assay. Positive cells were expanded and used. mGluR5 expression was induced by adding tetracycline (up to 1 µg/ml) 16 h before testing.
Fluorescent assays were performed using NOVOstar (BMG LABTECH, Ortenberg, Germany). CHO-mGluR5 cells were seeded into black-walled clear-bottomed 96-well plates at a density of 75,000 cells per well (complete media without antibiotics and containing 1 µg/ml of tetracycline to induce receptor expression) and were cultured overnight at 37° C. […] After a 3-min incubation at 37° C., changes in cell fluorescence ([…]) were monitored before and after the addition of the mGLuR5 agonist (1 mM sodium glutamate—Glu-Na). […]

Wistar rats [1] = assay: Open Field test in Acute Foot Shock (AFS) stress model; type: in vivo; settings: 4.5 mg/kg i.p. daily for ten days after AFS
Description: (§1) KEDV (SEQ ID NO: 4) and RAHE (SEQ ID NO: 3) (Lactocore Inc.) were administered intranasally (i.n), daily for 10 days at a dose of 1 mg/kg and 5 mg/kg. Peptides were prepared freshly each day in saline. The solution for i.n. administration of 5 mg/kg in a volume of 15 μl (single administration) contained 1.3 mg KEDV (SEQ ID NO: 4) or RAHE (SEQ ID NO: 3), and a solution for intranasal administration of 1 mg/kg in a volume of 10 μl (single administration) contained 0.26 mg KEDV (SEQ ID NO: 4) or RAHE (SEQ ID NO: 3).
(§2) The tetracyclic antidepressant Maprotiline (MAP, “Lyudiomil”), was used as a drug of comparison. Animals received a daily intraperitoneal injection (i.p) of MAP for ten days (M9651, Merck, in a dose of 4.5 mg/kg, dissolved in saline, 250 μl per administration).
(§3) Stimulation was performed automatically using a software randomizer.
The OF test is a classic method for assessing the level of motor activity and exploratory behavior of rodents in new stressogenic conditions. The test was performed in a cage of 90×90×45 cm without a roof, the floor of which was laid out on squares 15×15 cm and lit from above by a 60 W lamp. On the 5th day after stressing in the LH model, the rat was placed in the center of the OF. The following parameters were measured for 5 minutes: latency to start of moving, the number of crossed squares, the duration of rears and freezing.

Wistar rats [2] = assay: Elevated Plus Maze test in Acute Foot Shock (AFS) stress model; type: in vivo
Description: as §1, §2, §3
EPM testing allows characterizing the behavior of rodents under the variable stress conditions, which makes it possible to assess the level of animal anxiety and anxiolytic effects of drugs. On the 6th day after the experimental exposure, the rats were tested one at a time for 5 min in the EPM installation, located at a height of 75 cm above the floor, and consisting of 2 open illuminated and 2 closed arms with exits. The time spent by the animal inside and outside the closed arms (in the open arms and in the center), the number of transitions between the arms, the number of stretch-attended postures were evaluated. Usually, animals tend to stay in the closed arms, anxiolytic treatment results in an increment of the time spent on the open arms of the maze (Pellow et al. (1985). Validation of open: closed arm entries in an elevated plus-maze as a measure of anxiety in the rat. J. Neurosci. Methods, 14(3), 149-167; Walf et al. (2007). The use of the elevated plus maze as an assay of anxiety-related behavior in rodents. Nat. Protoc., 2(2), 322-328).

Wistar rats [3] = assay: Dexamethasone test (DXMT), serum corticosterone, AFS model; type: in vivo; settings: 4.5 mg/kg i.p. daily, after AFS; DXM 10 μg/kg
Description: as §3
Evaluation of the stress-evoked release of glucocorticoid hormones (corticosterone, an analog of cortisol in humans) and its suppression by the introduction of synthetic glucocorticosteroid was performed on the 9-10th day after the development of LH in a two-day dexamethasone test according to the scheme, taking into account the specificity of the circadian rhythm of HPA axis function in rats (Zhukov (1993). The dexamethasone suppression test in genetically different rats exposed to inescapable and escapable electric shocks. Psychoneuroendocrinology, 18(7), 467-474.].
On the first day of the test (DXMT1) at 10:00 AM, animals were injected (i.p.) with saline, then at 04:00 PM on the same day peripheral blood samples were taken to determine the basal level of the hormone, which caused stress, and 30 minutes after taking the rat from the cage and receiving initial sample, re-taken blood to measure hormone stress level.
To study the sensitivity of the HPA system to feedback signals, rats were injected with dexamethasone (DXM, 10 μg/kg, i.p.) the next day (DXMT2) at 10 AM. The procedure for taking blood from the tail vein was repeated after 6 and 6.5 hours. The corticosterone content was determined by enzyme-linked immunosorbent assay with reagent kits “Corticosterone-ELISA” (“Hema”, RF) in two parallel samples.

Sprague-Dawley rats = assay: Modified Porsolt Forced Swim test (FST), rats; type: in vivo; settings: i.p.; group name 5 mg/kg, test substance 20 mg/kg
Description: As part of this modification, two tests are carried out within two days. The installation is a transparent cylinder, 30 cm high, 10 cm in diameter and filled with water (water temperature 21° C.-23° C.) to a mark at a height of 25 cm. On the first day, each animal is placed in the apparatus for ten minutes. Behavioral parameters are not recorded. The animals are placed in the cylinder for 10 minutes again on the second day. The duration of active (vigorous movements with all paws) and passive (weak strokes with hind legs) swimming, as well as immobility (immobilization) (Porsolt et al. (1977) Behavioral despair in mice: a primary screening test for antidepressants. Arch Int Pharmacodyn Ther. 229(2):327-36) are recorded. After each test, the rats are placed in a heated cage until dry. The behavioral indicators in this test are processed using the Real Timer Program developed by Open Science. The sequence of events, their duration, as well as conduct basic statistical data processing are recorded.

mGluR5 (GRM5) = assay: HEK 293 cells mGluR5-luciferase reporter assay (β-arrestin2 recruitment); type: cell-based, human; settings: for effect on CHPG-induced mGluR5 activity (luciferase signal): + 1 mM CHPG
From the text: The methodology was previously described by Kroeze (Kroeze et al. (2015). PRESTO-Tango as an open-source resource for interrogation of the druggable human GPCRome. Nat. Struct. Mol. Biol. 22(5): 362) and the principle is illustrated in FIG. 19. Briefly, the cells of HEK293 cell line are transfected with 3 types of plasmids:
Plasmid 1: encodes fusion GRMS-tTA protein. The linker between GRMS and tTA is sensitive to TEV-protease (www.addgene.org/66390/).
Plasmid 2: encodes β-arrestin2/TEV-protease fusion protein (www.addgene.org/107245/).
Plasmid 3: luciferase tTA reporter (www.addgene.org/64127/).
Sufficient quantities of fusion proteins were produced during 24 hours after transfection. mGluR5 (GRM5) activation by a selective agonist CHPG (SEQ ID NO: 18) (1) leads to recruiting of β-arrestin2/TEV-protease fusion protein (2), that cleaves the linker between GRM5 and tTA (3). Released tTA transcription factor (4) binds with its consensus sites in tTA luciferase reporter plasmid (5) that results in activation of luciferase expression. The activity of luciferase can be used to estimate the activity of mGluR5, and application of negative allosteric modulators of mGluR5 should lead to a dose-dependent decrease in luciferase activity in this system (FIG. 19).
Sufficient quantities of the plasmids were produced using standard applications before the experiment. HEK293 cells were co-transfected with three plasmids using polyethylenimine (PEI, 408727, Sigma-Aldrich, USA) 24 hours prior to agonists application. Transfected cells were treated with agonists/antagonists and incubated overnight (16 hours). Antagonists were introduced 10 minutes prior to agonists. Luciferase test was performed using Promega™ Luciferase Assay Systems Kit (PR-E1500, Promega, USA) according to the manufacturer's protocol.
CHPG—orthosteric selective mGlu5 receptor agonist (HB0033, HelloBio, USA). […]

[4] = MAP 4.5 mg/kg i.p., AFS, overall median 0.00

intracellular [Ca^2+] levels vs buffer (human mGluR5; 1 mM, CHO-mGluR5 cells): elevated intracellular [Ca^2+] levels
Structure (SMILES): N[C@@H](CCC(=O)[O-])C(=O)[O-].[Na+].[Na+] [GluNa, sodium glutamate]

Structure (SMILES): CNCCCC12CCC(c3ccccc31)c1ccccc12 [MAP, Maprotiline]
freezing behavior vs stressed saline-treated animals (Wistar rats [1]): significant reduction of freezing behavior
proportion of animals that went to the open arms of the maze (Wistar rats [2]; 4.5 mg/kg i.p. daily, after AFS): 78%
time in open arms <=Median: obs. − exp. (Wistar rats [2]; MAP 4.5 mg/kg i.p., AFS): −2.86
time in open arms >Median: obs. − exp. (Wistar rats [2]; MAP 4.5 mg/kg i.p., AFS): 2.86
time in open arms <=Median: observed (animals) (Wistar rats [2]; [4]): 2.00
time in open arms >Median: observed (animals) (Wistar rats [2]; [4]): 7.00
suppression of stress CS levels in serum by DXM (Wistar rats [3]): more than 50%

effect on GluNa-induced activation (human mGluR5; pre-treatment 0.1, 1, 10, 100 μM, 1 mM GluNa): abolished GluNa-induced activation
Structure (SMILES): Cc1cccc(C#Cc2ccccc2)n1 [MPEP, 2-methyl-6-(phenylethynyl)-pyridine]

Structure (SMILES): CNCCC(Oc1ccc(C(F)(F)F)cc1)c1ccccc1 (stereo not shown) [Fluoxetine, fluoxetine]
antidepressant-like properties in FST (Sprague-Dawley rats): not observed

Structure (SMILES): Cc1ccc(O)c(N=Nc2ccccc2)n1 [SIB 1757]
effect on CHPG-induced mGluR5 activity (luciferase signal) (mGluR5 (GRM5); 10 μM): inhibition of mGluR5 activity; also recorded: significant decrease of luciferase signal
effect on CHPG-induced mGluR5 activity (luciferase signal) (mGluR5 (GRM5); 100 μM): inhibition of mGluR5 activity

Structure (SMILES): NC(C(=O)O)c1cc(O)ccc1Cl (stereo not shown) [CHPG]
luciferase signal (mGluR5 activation) (mGluR5 (GRM5); 1 mM, 16-hours incubation): significant induction of luciferase signal
